Experimental data taken from publication PMC12702776 (Cancer Gene Therapy, 2025).

Legend:
[1] = test system: DHR2 domain of DOCK2; design: method as in PMID 22520755; conditions: cited from earlier work
[2] = target: T1, DOCK2 (Homo sapiens, UniProt Q92608); assay: Active GTPase pull-down assay in IGR1 melanoma cells treated with DOCK2 inhibitor; assay type: cell-based; conditions: serum-stimulated IGR1 cells, 25 µM and 100 µM
T1 construct: endogenous in cells; host or cells: IGR1 human melanoma cells
T1 sequence (Q92608 whole entry): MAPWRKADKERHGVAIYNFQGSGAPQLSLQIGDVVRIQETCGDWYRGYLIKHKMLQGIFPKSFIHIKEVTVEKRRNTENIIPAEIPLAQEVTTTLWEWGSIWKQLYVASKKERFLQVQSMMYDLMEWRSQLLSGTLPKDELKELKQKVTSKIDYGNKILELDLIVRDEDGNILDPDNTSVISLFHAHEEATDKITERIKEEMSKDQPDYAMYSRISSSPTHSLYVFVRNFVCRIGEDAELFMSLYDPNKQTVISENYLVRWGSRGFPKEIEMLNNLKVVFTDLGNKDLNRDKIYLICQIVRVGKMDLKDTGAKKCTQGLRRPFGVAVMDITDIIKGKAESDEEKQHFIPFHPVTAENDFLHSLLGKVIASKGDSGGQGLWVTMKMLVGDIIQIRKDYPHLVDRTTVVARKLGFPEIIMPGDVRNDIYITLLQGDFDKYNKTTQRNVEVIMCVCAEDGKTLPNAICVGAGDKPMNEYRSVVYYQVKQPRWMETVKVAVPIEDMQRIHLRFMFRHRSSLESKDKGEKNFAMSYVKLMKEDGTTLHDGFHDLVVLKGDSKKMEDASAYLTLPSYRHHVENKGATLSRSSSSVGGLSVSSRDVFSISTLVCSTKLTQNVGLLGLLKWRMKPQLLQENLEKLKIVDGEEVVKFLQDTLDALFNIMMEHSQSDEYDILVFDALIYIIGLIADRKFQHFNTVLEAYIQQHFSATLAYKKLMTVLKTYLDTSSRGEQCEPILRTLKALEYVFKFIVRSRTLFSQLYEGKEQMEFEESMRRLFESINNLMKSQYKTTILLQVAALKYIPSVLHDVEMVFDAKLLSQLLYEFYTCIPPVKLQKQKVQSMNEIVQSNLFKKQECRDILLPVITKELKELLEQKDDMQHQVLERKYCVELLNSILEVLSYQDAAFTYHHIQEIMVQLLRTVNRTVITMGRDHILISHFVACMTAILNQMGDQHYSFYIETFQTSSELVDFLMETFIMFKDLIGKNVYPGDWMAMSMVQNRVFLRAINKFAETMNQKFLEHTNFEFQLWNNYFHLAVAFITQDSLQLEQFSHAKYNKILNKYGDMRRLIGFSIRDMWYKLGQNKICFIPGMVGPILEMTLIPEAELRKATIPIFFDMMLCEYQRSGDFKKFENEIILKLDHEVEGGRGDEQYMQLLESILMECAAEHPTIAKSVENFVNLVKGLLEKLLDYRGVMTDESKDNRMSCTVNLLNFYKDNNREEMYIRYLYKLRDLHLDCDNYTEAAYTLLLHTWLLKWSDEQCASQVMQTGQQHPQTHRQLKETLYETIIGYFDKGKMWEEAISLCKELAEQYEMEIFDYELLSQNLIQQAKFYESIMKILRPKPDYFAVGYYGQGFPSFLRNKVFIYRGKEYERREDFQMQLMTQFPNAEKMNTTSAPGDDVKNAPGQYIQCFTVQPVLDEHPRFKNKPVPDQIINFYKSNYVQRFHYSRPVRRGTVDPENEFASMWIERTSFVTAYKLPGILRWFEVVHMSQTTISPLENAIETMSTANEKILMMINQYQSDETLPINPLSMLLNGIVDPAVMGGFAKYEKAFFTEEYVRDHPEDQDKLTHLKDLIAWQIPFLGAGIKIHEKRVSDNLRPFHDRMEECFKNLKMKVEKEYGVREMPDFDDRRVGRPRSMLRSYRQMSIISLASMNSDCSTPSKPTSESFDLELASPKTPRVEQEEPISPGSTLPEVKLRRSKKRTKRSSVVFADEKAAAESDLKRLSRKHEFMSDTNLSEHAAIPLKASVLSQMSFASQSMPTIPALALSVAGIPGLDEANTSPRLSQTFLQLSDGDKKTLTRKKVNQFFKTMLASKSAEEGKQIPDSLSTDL
Description: HEK-293T and IGR1 human melanoma cells were cultured under serum-stimulated and serum-starved conditions in DMEM supplemented with 10% FBS and 1% penicillin/streptomycin. The HEK-293T cells were then transfected with RAC1 constructs containing N-terminal 10×His–triple FLAG tags using TurboFect™ (Thermo Fisher Scientific), according to the manufacturer’s protocol. The HEK-293T cells were cultured and harvested under serum-stimulated or serum-starved conditions without additional treatment. IGR1 cells, in contrast, were treated with the DOCK2 inhibitor CPYPP (MedChemExpress) at 25 µM and 100 µM concentrations, with 0.5% DMSO as a vehicle control. After treatment, cells were harvested and lysed, and protein concentrations were determined using the Bradford assay. Detailed protocols, including buffer compositions, are provided in the Supplementary Information.
Experiments were conducted under both serum-stimulated and serum-starved conditions, as described previously. […] After incubation, the beads were washed and analyzed by SDS-PAGE followed by immunoblotting. […]
Cell culture, transfection, and treatment. […] The resulting supernatants were collected for downstream applications, and protein concentrations were determined using the Bradford assay.
Active GTPase pull-down assay. […] Samples were analyzed by SDS-PAGE and immunoblotting […]

[3] = test system: IGR1 cells; conditions: cited from earlier work
[4] = target: T2, RAC1^F28L (Homo sapiens, UniProt P63000, F28L); assay: Nucleotide-binding assay (stopped-flow fluorimetry); conditions: faster than RAC1 WT
T2 construct: GST (N); made in house; host or cells: Escherichia coli
Description: (§1) The nucleotide-binding properties of RAC1 GTPases were assessed by stopped-flow fluorimetry, as described. Nucleotide association and dissociation rates were measured using fluorescent nucleotides (mdGDP and mGppNHp) and varying RAC1 concentrations. Association (kon) and dissociation (koff) rate constants were determined, and equilibrium dissociation constants (Kd) were calculated as described in Box 2. Detailed procedures are provided in the Supplementary Materials.
(§2) Nucleotide-binding assay. The nucleotide-binding properties of the RAC1 GTPases were assessed using a stopped-flow fluorimetry approach, as described (10). ucleotide association was measured with 0.1 µM fluorescently labeled nucleotides, such as mdGDP and mGppNHp, and varying concentrations of nucleotide-free RAC1 proteins (0.25–5 μM). Measurements were conducted in a buffer containing 30 mM Tris-HCl, pH 7.5, 10 mM KH2PO4/K2HPO4, 5 mM MgCl2, and 3 mM DTT, at 25 °C. The association rate constant (kon) was determined by plotting the observed rate constants (kobs) against the concentration of nucleotide-free RAC1 and analyzing the slope via linear regression using Origin software. The dissociation rate constant (koff) of the fluorescent nucleotide from RAC1 proteins (0.1 µM) was measured by adding a 200-fold excess of the non-fluorescent nucleotide (20 µM). The affinity of RAC1 proteins for GDP and GppNHp was calculated by dividing koff by kon, yielding the equilibrium dissociation constants (Kd), as defined in Box 2 of the main text.

[5] = target: T3, RAC1^WT (Homo sapiens, UniProt P63000); assay: as above
T3 construct: GST (N); made in house; host or cells: Escherichia coli
Description: as §1, §2

[6] = target: T4, RAC1^T17N (Homo sapiens, UniProt P63000, T17N); assay: as above
T4 construct: GST (N); made in house; host or cells: Escherichia coli
Description: as §1, §2

[7] = target: T5, RAC1^P29S (Homo sapiens, UniProt P63000, P29S); assay: as above; conditions: RAC1 P29S compared to RAC1 WT
T5 construct: GST (N); made in house; host or cells: Escherichia coli
Description: as §1, §2

Kd [5] [nM]	Kd, lower affinity P29S vs WT [7] [fold]	kon, reduction P29S vs WT [7] [fold]	Molecule	sensitivity of IGR1 cells (RAC1^P29S, BRAF^V600K) [3]	also measured
			O=C1NN(c2ccccc2)C(=O)/C1=C/C=C/c1ccccc1Cl [CPYPP]		effect on DOCK2 catalytic activity [1]: reversibly blocking its catalytic activity; effect on RAC1^P29S activation [2]: reduced RAC1^P29S activation in a dose-dependent manner
			CC(C)(C)c1nc(-c2cccc(NS(=O)(=O)c3c(F)cccc3F)c2F)c(-c2ccnc(N)n2)s1 [dabrafenib]	reduced sensitivity	
0.3	147	14	CNc1ccccc1C(=O)O[C@H]1C[C@H](n2cnc3c(=O)[nH]c(N)nc32)O[C@@H]1COP(=O)(O)OP(=O)(O)O [mdGDP, methylanthraniloyl-2'-deoxy-guanosine 5′-diphosphate]		intrinsic nucleotide dissociation rate, F28L vs WT [4]: 20 fold; decrease in binding affinity, T17N vs WT ([6]; RAC1 T17N compared to RAC1 WT): 1346 fold; dissociation rate, T17N vs WT ([6]; higher than RAC1 WT): 410 fold; koff, increase P29S vs WT [7]: 10 fold
			CCCS(=O)(=O)Nc1ccc(F)c(C(=O)c2c[nH]c3ncc(-c4ccc(Cl)cc4)cc23)c1F [vemurafenib]	reduced sensitivity	
0.6	289	27	methylanthraniloyl guanosine 5'-[beta,gamma-imido]triphosphate [mGppNHp]		
